Test results from patent publication US10781232B2, “Sugar-dipeptide conjugates as flavor molecules” (NESTEC S.A., priority 2015, dated 2020).

Experiments:
Type in all cases: in vivo, human
[1] = Sensory evaluation of tomato soups with and without the compound; settings: compound added at 2 g/L; 6 g tomato base powder in 500 mL hot water
Description: 1-Deoxy-D-fructosyl-N-β-alanyl-L-histidine or alternatively 1-deoxy-D-fructosyl-N-β-alanyl-N-methyl-L-histidine was added at 2 g/L to the soups.

[2] = Sensory evaluation of chicken soups with and without the compound; settings: compound added at 2 g/L; chicken base powder 6 g and 1 g monosodium glutamate in 500 mL hot water; 12 panelists
Description: Chicken soups were prepared by dissolving 6 g chicken base powder (detailed recipe shown in Table 3) and 1 g monosodium glutamate in 500 mL hot water. 1-Deoxy-D-fructosyl-N-β-alanyl-L-histidine or alternatively 1-deoxy-D-fructosyl-N-β-alanyl-N-methyl-L-histidine was added at 2 g/L.
The sensory evaluation was carried out by 12 panelists, previously screened for their sensory abilities. The panelists were asked to taste a set of 2 chicken soups, one containing no 1-deoxy-D-fructosyl-N-β-alanyl-L-histidine and one containing 1-deoxy-D-fructosyl-N-β-alanyl-L-histidine (2 g/L). If sensory differences were observed, the panelists were asked to describe them.
The same sensory evaluation was carried out with the chicken soup samples with and without containing 1-deoxy-D-fructosyl-N-β-alanyl-N-methyl-L-histidine at 2 g/L broth.

[3] = Taste threshold concentration in model broth, three-alternative test by sensory panel; settings: thick-sour sensation and white-meaty oral impression, value in brackets
Description: The sensory tests were performed in a sensory panel room at 20-25° C. To avoid a retro-nasal aroma or taste impression, nose clips were used. The sensory panel consisted of 8 to 14 trained persons. The panel was trained to evaluate the taste of aqueous solutions (1 mL each) of the following standard taste compounds by using a triangle test: saccharose (50 mmol/L) and L-alanine (15 mmol/L), respectively, for sweet taste; lactic acid (20 mmol/L) for sour taste; NaCl (12 mmol/L) for salty taste; caffeine (1 mmol/L) and quinine hydrochloride (0.05 mmol/L), respectively, for bitter taste; sodium glutamate (8 mmol/L, pH 5.7) for umami taste; and tannin (0.05%) for astringency. The “white meaty” oral sensations was assessed in a model broth solution prepared from monosodium glutamate monohydrate (1.9 g/L), yeast extract (2.1 g/L), maltodextrin (6.375 g/L) and sodium chloride (2.9 g/L) in bottled water (pH 5.9).
The taste threshold concentration of β-alanyl-L-histidine was determined in the model broth using a three-alternative test with two blanks and one sample in ascending concentrations of β-alanyl-L-histidine.
This taste threshold value is considerably lower than the 22′700 μmol/L (5.3 mg/g) threshold level determined for the corresponding β-alanyl-L-histidine under the same experimental model system (see Example 5). […]

Cn1cncc1C[C@H](NC(=O)CCNCC(=O)[C@@H](O)[C@H](O)[C@H](O)CO)C(=O)O [1-deoxy-D-fructosyl-N-β-alanyl-N-methyl-L-histidine]
sensory panel conclusion on flavour of tomato soup [1]: increased significantly the savory, spicy notes
sensory panel conclusion on flavour of chicken soup [2]: significantly increased the boiled chicken and meaty flavours

NCCC(=O)N[C@@H](Cc1c[nH]cn1)C(=O)O [β-alanyl-L-histidine]
taste threshold concentration [3]: 5.3 mg/g
